Earlier results in US20180250285A1 (Teva Pharmaceutical Industries Ltd., priority 2012, published 2018).

Key:
[1] = in vivo
[2] = tested on: patients with HD
[3] = tested on: Huntington's disease patients

| Compound | oral bioavailability [1] | symptomatic relief incl. improved hand movements, gait and balance [2] | tertiary endpoint UHDRS-TMS (changes in motor function) and individual items within the mMS (gait, dysarthria) ([3]; 45 mg daily or 45 mg twice daily for 6 months) | primary endpoint: effect on a specific subset of motor symptoms defined in the mMS ([3]; at 26 weeks, 45 mg daily or 45 mg twice daily) |
| --- | --- | --- | --- | --- |
| CCN(C(=O)c1c(O)c2c(Cl)cccc2n(C)c1=O)c1ccccc1 [Laquinimod] | high | – | – | – |
| CCCN1CCC(c2cccc(S(C)(=O)=O)c2)CC1 [pridopidine, 4-[3-(methylsulfonyl)phenyl]-1-propyl-piperidine] | – | significant symptomatic relief | statistically significant effect of treatment | not met |
